Assay results as given in ChEMBL document CHEMBL1121869, “Potential inhibitors of L-asparagine biosynthesis. 5. Electrophilic amide analogues of (S)-2,3-diaminopropionic acid” (J Med Chem, 1981).

Key:
[1] = target: T1, Asparagine synthetase [glutamine-hydrolyzing] (Rattus norvegicus) (UniProt P49088); assay: Inhibition of asparagine synthetase from partially purified rat Novikoff hepatoma at a final concentration of 2 mM
T1 sequence (whole entry): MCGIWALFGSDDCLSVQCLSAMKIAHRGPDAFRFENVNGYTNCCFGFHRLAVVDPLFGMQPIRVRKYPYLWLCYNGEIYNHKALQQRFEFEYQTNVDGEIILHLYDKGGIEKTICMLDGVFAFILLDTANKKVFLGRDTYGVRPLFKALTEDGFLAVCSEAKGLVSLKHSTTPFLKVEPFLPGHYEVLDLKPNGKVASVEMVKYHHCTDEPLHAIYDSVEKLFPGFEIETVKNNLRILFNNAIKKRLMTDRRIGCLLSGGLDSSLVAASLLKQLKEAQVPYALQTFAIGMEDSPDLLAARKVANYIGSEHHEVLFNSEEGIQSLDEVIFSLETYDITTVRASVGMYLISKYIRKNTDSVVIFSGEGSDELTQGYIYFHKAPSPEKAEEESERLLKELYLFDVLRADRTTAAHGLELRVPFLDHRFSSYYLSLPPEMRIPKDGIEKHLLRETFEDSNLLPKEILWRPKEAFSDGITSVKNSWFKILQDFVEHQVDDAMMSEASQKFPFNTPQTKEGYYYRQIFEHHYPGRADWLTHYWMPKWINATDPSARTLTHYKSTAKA

[2] = target: T1, Asparagine synthetase [glutamine-hydrolyzing] (Rattus norvegicus); assay: Inhibition of asparagine synthetase from partially purified rat Novikoff hepatoma at a final concentration of 1 mM
[3] = test system: TsH1; assay: Compound was evaluated for the growth inhibition of TsH1 cells in an enriched eagles minimal essential medium, medium lacking aspartic acid and asparagine at a concentration of 0.01 mg/mL (0.03 mM); Medium growth; type: functional, cell-based; conditions: Cricetulus griseus
[4] = test system: TsH1; assay: Compound was evaluated for the growth inhibition of TsH1 cells in an enriched eagles minimal essential medium, medium lacking aspartic acid and asparagine at a concentration of 0.04 mg/mL (0.13 mM); Heavy growth; type: functional, cell-based; conditions: Cricetulus griseus
[5] = test system: TsH1; assay: Compound was evaluated for the growth inhibition of TsH1 cells in an enriched eagles minimal essential medium, medium lacking aspartic acid and asparagine at a concentration of 0.2 mg/mL (0.65 mM); Cells dead; type: functional, cell-based; conditions: Cricetulus griseus
[6] = test system: TsH1; assay: Compound was evaluated for the growth inhibition of TsH1 cells in an enriched eagles minimal essential medium, complete medium at a concentration of 0.01 mg/mL (0.03 mM); Heavy growth; type: functional, cell-based; conditions: Cricetulus griseus
[7] = test system: TsH1; assay: Compound was evaluated for the growth inhibition of TsH1 cells in an enriched eagles minimal essential medium, complete medium at a concentration of 0.04 mg/mL (0.13 mM); Heavy growth; type: functional, cell-based; conditions: Cricetulus griseus
[8] = test system: TsH1; assay: Compound was evaluated for the growth inhibition of TsH1 cells in an enriched eagles minimal essential medium, medium lacking asparagine at a concentration of 1.0 mg/mL (3.27 mM); Cells dead; type: functional, cell-based; conditions: Cricetulus griseus
[9] = test system: TsH1; assay: Compound was evaluated for the growth inhibition of TsH1 cells in an enriched eagles minimal essential medium, medium lacking asparagine at a concentration of 0.01 mg/mL (0.03 mM); Heavy growth; type: functional, cell-based; conditions: Cricetulus griseus
[10] = test system: TsH1; assay: Compound was evaluated for the growth inhibition of TsH1 cells in an enriched eagles minimal essential medium, complete medium at a concentration of 0.2 mg/mL (0.65 mM); Light growth; type: functional, cell-based; conditions: Cricetulus griseus
[11] = test system: TsH1; assay: Compound was evaluated for the growth inhibition of TsH1 cells in an enriched eagles minimal essential medium, medium lacking asparagine at a concentration of 0.04 mg/mL (0.13 mM); Heavy growth; type: functional, cell-based; conditions: Cricetulus griseus
[12] = test system: TsH1; assay: Compound was evaluated for the growth inhibition of TsH1 cells in an enriched eagles minimal essential medium, medium lacking asparagine at a concentration of 0.2 mg/mL (0.65 mM); Cells dead; type: functional, cell-based; conditions: Cricetulus griseus
[13] = test system: TsH1; assay: Compound was evaluated for the growth inhibition of TsH1 cells in an enriched eagles minimal essential medium, medium lacking aspartic acid and asparagine at a concentration of 1.0 mg/mL (3.27 mM); Cells dead; type: functional, cell-based; conditions: Cricetulus griseus
[14] = test system: TsH1; assay: Compound was evaluated for the growth inhibition of TsH1 cells in an enriched eagles minimal essential medium, medium lacking aspartic acid at a concentration of 0.01 mg/mL (0.03 mM); Heavy growth; type: functional, cell-based; conditions: Cricetulus griseus
[15] = test system: TsH1; assay: Compound was evaluated for the growth inhibition of TsH1 cells in an enriched eagles minimal essential medium, medium lacking aspartic acid at a concentration of 0.2 mg/mL (0.65 mM); Light growth; type: functional, cell-based; conditions: Cricetulus griseus
[16] = test system: TsH1; assay: Compound was evaluated for the growth inhibition of TsH1 cells in an enriched eagles minimal essential medium, medium lacking aspartic acid at a concentration of 1.0 mg/mL (3.27 mM); Cells dead; type: functional, cell-based; conditions: Cricetulus griseus
[17] = test system: TsH1; assay: Compound was evaluated for the growth inhibition of TsH1 cells in an enriched eagles minimal essential medium, medium lacking aspartic acid at a concentration of 0.04 mg/mL (0.13 mM); Heavy growth; type: functional, cell-based; conditions: Cricetulus griseus
[18] = test system: TsH1; assay: Compound was evaluated for the growth inhibition of TsH1 cells in an enriched eagles minimal essential medium, complete medium at a concentration of 1.0 mg/mL (3.27 mM); Cells dead; type: functional, cell-based; conditions: Cricetulus griseus

Row | SMILES | inhibition [1] [%] | inhibition [2] [%] | Growth inhibition [3] | Growth inhibition [4] | Growth inhibition [5] | Growth inhibition [6] | Growth inhibition [7] | Growth inhibition [8] | Growth inhibition [9] | Growth inhibition [10] | Growth inhibition [11] | Growth inhibition [12] | Growth inhibition [13] | Growth inhibition [14] | Growth inhibition [15] | Growth inhibition [16] | Growth inhibition [17] | Growth inhibition [18]
1 | CC(=O)NCC(N)C(=O)O (stereo not drawn) | 0 | – | – | – | – | – | – | – | – | – | – | – | – | – | – | – | – | –
2 | NC(CNC(=O)CBr)C(=O)O (stereo not drawn) | – | 93 | Medium Growth | Heavy Growth | Not toxic | Heavy Growth | Heavy Growth | Not toxic | Heavy Growth | Light growth | Heavy Growth | Not toxic | Not toxic | Heavy Growth | Light growth | Not toxic | Heavy Growth | Not toxic
